{
  "source": "paper PMC5588751",
  "about": "(Nanotheranostics, 2017)",
  "origin": "cited, not measured here",
  "test_system": "blood-brain barrier (BBB)",
  "settings": "[20]",
  "data": [
    {"substance": "Ac-SHAVAS-NH2 [HAV4]", "values": [
      {"measurement": "Brain delivery of Gd-DTPA (small molecular weight marker)", "setting": "dose-dependent manner, MRI, ref [17], [18]", "result": "significantly enhanced"},
      {"measurement": "Duration of BBB opening for Gd-DTPA (small molecule)", "setting": "pretreatment studies with Gd-DTPA detected by MRI, ref [18]", "result": "less than 1 h"}
    ]}
  ]
}
